The target in data set [1] is T1, human PI3Kalpha p110 catalytic subunit (Rat-1 pBABEpuro Myr-HA-hp110alpha) (Homo sapiens, UniProt P42336).
T1 construct: Myr (myristoylation signal) (N); HA (N); expressed in transfected cells; host or cells: Rat-1
The experiment in a line: Cellular assay PI3Kalpha (p-Akt(S473) SureFire, Rat-1_PI3Kalpha cells). The settings on record: 1 h compound treatment, read-out: Rat1-PI3Ka/ IC50. In kind it is cell-based. The text has this: AlphaScreen (Amplified Luminescent Proximity Homogeneous Assay, ALPHA, Perkin Elmer) is a non-radioactive bead-based proximity assay technology to study biomolecular interactions in a homogenous microtiter plate format. The brand name SureFire denotes AlphaScreen assays that are adapted to quantify the phosphorylation of endogenous cellular proteins in cell lysates, by using matched antibody pairs, which consist of an anti-phospho-kinase and an anti-kinase antibody. The assay allows characterization of kinase signaling in cells as well as measurement of kinase inhibitor effects. The AlphaScreen technology provides several advantages over standard assay techniques such as ELISA, as it avoids time-consuming washing procedures and reduces plate handling. Furthermore, it is miniaturizable at least to a 384-well format and provides sensitivity down to the femtomolar range, dependent on the affinity of the antibodies included in the individual AlphaScreen SureFire assay kit. High sensitivity is reached by an intrinsic amplification mechanism, which involves production of singlet oxygen molecules. SureFire assay kits are commercially available for specific targets and include pairs of validated antibodies (PerkinElmer). This report describes common procedures applied for AlphaScreen SureFire assays and respective semi-automated steps for routine kinase inhibitor profiling in cell-based assays.
The Rat-1 cell lines stably overexpressing activated PI3K class I isoforms Rat-1 pBABEpuro Myr-HA-hp110 delta (Rat-1_PI3Kdelta) and Rat-1 pBABEpuro Myr-HA-hp110alpha (Rat-1_PI3Kalpha) and Rat-1 pBABEpuro Myr-HA-hp110 beta (Rat-1_PI3beta) were prepared as described (Maira S M, Stauffer F, Brueggen J, Furet P, Schnell C, Fritsch C, Brachmann S, Chène P, de Pover A, Schoemaker K, Fabbro D, Gabriel D, Simonen M, Murphy L, Finan P, Sellers W, García-Echeverría C (2008), Mol Cancer Ther. 7:1851-63 and Maira S M, Pecchi S, Brueggen J, Huh K, Schnell C, Fritsch C, Nagel T, Wiesmann M, Brachmann S, Dorsch M, Chène P, Schoemaker K, De Pover A, Menezes D, Fabbro D, Sellers W, García-Echeverría C, Voliva C F (2011), Mol. Cancer Ther., accepted). All cell lines were cultivated in complete growth medium (DMEM high glucose, 10% (v/v) fetal bovine serum, 1% (v/v) MEM NEAA, 10 mM HEPES, 2 mM L-glutamine, puromycin (10 μg/mL for Rat-1_PI3Kdelta and Rat-1_PI3Kalpha, 4 ug/mL for Rat-1_PI3beta), 1% (v/v) Pen/Strep) to 90% confluency at 37° C./5% CO2/90% humidity in a humidified CO2 incubator and were split twice a week.
The following materials were used for p-AKT(S473) detection in Rat-1 cell lysates: Dulbecco's modified Eagle's medium (DMEM) high glucose (Gibco Invitrogen, Basel, Switzerland, Cat. No. 41965), Heat Inactivated Fetal Bovine Serum, Qualified (HI FBS; Gibco Invitrogen, Basel, Switzerland, Lot. No. 16140), MEM non essential amino acids (NEAA; Gibco Invitrogen, Basel, Switzerland, Cat. No. 11140), HEPES (Gibco Invitrogen, Basel, Switzerland, Cat. No. 15630), Penicillin/Streptomycin (Pen/Strep, 100×; Gibco Invitrogen, Basel, Switzerland, Cat. No. 15140-122), L-Glutamine (Gibco Invitrogen, Basel, Switzerland, Cat. No. 25030), Puromycin (Sigma Aldrich, Buchs, Switzerland, Cat. No. P9620), DMSO (MERCK, Dietikon, Switzerland, Cat. No. 8.02912.2500), H2O, MilliQ-H2O unless otherwise stated (MILLIPORE QGARDOOR1, Millipore, Zug, Switzerland), Bovine serum albumine (BSA; Sigma Aldrich, Buchs, Switzerland Cat. No. A8412), SureFire p-Akt 1/2 (Ser473) Assay Kit (PerkinElmer, Schwerzenbach, Switzerland, Cat. No. TGRAS50K).
The p-Akt(S473) SureFire assay measures the phosphorylation of endogenous cellular Akt 1/2 at Ser473 in cell lysates. Using Rat-1 cells stably expressing myr-HA-tagged versions of the human PI3Kdelta, PI3Kalpha, or PI3Kbeta p110 catalytic subunit isoforms, the assay was developed as a two-plate protocol in a 384-well format.

The subject of another data set is A2058 cells. The experiment in a line: Cell cycle G2/M arrest Cytospin assay to detect tubulin binding (off-target). In kind it is cell-based. Details: key: 0=no condensed DNA observed (indicating no off target activity); 1=(indicating weak off target activity); 2=(indicating medium off target activity); 3=large amount of condensed DNA observed (indicating strong off-target activity). The settings on record: 5 μM test item, 24 hours. How it is done: The off-target effect (evidence of tubulin binding) was measured as follows.
Cell cycle G2/M arrest Cytospin assay to detect tubulin binding (off-target) binding activities of MAPP derivatives: 5×10^5 cells A2058 cells were plated in 6-well cluster, with 2 mL of DMEM (high Glucose containing 1% sodium pyruvate, 1% glutamin and 10% FCS). 18 hours later, the test items were added at a concentration of 5 μM (spiking 1 μL of a 10 mM solution of the test item). 24 hours later, the cells were trypsinized and transferred into a 15 mL conical tube. Cells are then pelleted by centrifugation, and resuspended with PBS/0 (containing 10% FCS). Cells are counted with a CASY counter, and each samples equilibrated to 1×10^6 cells/mL. […] The staining was visually assessed for the presence of condensed DNA and given a score where 0=no condensed DNA observed (indicating no off target activity), 1=(indicating weak off target activity), 2=(indicating medium off target activity), 3=large amount of condensed DNA observed (indicating strong off-target activity).

T1 sequence (P42336 whole entry): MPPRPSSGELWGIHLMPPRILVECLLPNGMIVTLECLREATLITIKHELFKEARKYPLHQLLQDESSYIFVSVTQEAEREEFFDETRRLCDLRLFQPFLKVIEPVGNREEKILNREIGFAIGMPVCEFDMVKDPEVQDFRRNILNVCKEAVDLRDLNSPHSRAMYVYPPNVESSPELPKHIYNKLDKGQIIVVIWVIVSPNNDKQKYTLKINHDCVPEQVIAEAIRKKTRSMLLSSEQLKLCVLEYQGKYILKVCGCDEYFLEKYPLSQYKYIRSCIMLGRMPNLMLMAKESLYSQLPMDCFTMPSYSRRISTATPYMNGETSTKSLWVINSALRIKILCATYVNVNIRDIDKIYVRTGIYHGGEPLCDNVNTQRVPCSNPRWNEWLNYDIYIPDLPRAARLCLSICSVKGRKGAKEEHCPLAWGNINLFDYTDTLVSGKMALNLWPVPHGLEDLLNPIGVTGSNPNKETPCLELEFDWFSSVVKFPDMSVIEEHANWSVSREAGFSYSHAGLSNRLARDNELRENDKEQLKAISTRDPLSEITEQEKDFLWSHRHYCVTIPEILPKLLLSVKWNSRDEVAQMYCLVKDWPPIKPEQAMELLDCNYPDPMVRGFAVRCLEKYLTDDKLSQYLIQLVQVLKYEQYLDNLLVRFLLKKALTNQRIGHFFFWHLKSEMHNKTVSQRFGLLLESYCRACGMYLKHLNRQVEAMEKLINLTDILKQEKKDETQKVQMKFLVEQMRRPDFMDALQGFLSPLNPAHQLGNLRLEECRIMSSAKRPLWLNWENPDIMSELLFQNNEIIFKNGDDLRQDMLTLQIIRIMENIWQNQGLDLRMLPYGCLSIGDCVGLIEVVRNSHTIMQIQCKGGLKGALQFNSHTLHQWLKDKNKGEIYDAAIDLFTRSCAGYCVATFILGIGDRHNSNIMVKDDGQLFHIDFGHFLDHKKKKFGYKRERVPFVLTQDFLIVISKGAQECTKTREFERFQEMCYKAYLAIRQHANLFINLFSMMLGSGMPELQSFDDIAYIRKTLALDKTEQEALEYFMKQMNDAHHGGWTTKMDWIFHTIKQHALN
T1 sequence (Q63787 whole entry partner): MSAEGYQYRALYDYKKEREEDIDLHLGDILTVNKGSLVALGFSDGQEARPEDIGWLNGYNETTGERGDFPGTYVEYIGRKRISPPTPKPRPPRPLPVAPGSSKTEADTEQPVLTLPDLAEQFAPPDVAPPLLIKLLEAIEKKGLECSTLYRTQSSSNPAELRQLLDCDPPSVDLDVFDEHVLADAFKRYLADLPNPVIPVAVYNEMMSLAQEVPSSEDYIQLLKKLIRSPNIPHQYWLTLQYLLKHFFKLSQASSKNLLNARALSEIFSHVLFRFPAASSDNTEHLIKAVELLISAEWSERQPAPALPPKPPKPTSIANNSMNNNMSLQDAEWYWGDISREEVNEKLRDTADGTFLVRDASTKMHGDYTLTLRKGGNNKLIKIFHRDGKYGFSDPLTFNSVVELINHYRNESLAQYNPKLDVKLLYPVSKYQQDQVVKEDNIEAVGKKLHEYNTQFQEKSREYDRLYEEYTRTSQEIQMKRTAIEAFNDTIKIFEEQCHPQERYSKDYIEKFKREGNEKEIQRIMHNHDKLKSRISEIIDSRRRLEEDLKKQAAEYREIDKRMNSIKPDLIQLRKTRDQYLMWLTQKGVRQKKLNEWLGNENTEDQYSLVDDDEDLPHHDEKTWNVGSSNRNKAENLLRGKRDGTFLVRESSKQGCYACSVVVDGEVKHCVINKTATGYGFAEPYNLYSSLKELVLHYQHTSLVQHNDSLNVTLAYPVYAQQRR

In the case of `C[C@H]1OC(=O)N(c2cc(-c3cnc(N)nc3C(F)(F)F)nc(N3CCOCC3)n2)[C@H]1CO` [Example 18, (4S,5R)-3-(2′-Amino-2-morpholin-4-yl-4′-trifluoromethyl-[4,5′]bipyrimidinyl-6-yl)-4-hydroxymethyl-5-methyl-oxazolidin-2-one], the IC50 in data set [1] is 38 nM. The “Score (condensed DNA, G2/M arrest; off-target tubulin binding)” value (shortened to “Score”) in the data set on A2058 cells was 0.

As for `C[C@@H]1OC(=O)N(c2cc(-c3cnc(N)nc3C(F)(F)F)nc(N3CCOCC3)n2)[C@H]1CO` [Example 6], the IC50 in data set [1] came to 94 nM. Moreover, the “Score” value in the data set with A2058 cells is listed as 0.

Turning to `Nc1ncc(-c2cc(N3C[C@H](CO)OC3=O)nc(N3CCOCC3)n2)c(C(F)(F)F)n1` [Example 20, (R)-3-(2′-Amino-2-morpholin-4-yl-4′-trifluoromethyl-[4,5′]bipyrimidinyl-6-yl)-5-hydroxymethyl-oxazolidin-2-one], the IC50 in data set [1] is 158 nM. In the data set with A2058 cells, the “Score” value is reported as 1-2.

With `COC[C@H]1COC(=O)N1c1cc(-c2cnc(N)nc2C(F)(F)F)nc(N2CCOCC2)n1` [Example 5, (S)-3-(2′-Amino-2-morpholin-4-yl-4′-trifluoromethyl-[4,5′]bipyrimidinyl-6-yl)-4-methoxymethyl-oxazolidin-2-one], the IC50 in data set [1] amounted to 93 nM. Besides, the “Score” value with A2058 cells came to 0.

Consider `C[C@H]1[C@@H](CO)OC(=O)N1c1cc(-c2cnc(N)nc2C(F)(F)F)nc(N2CCOCC2)n1` [Example 19, (4S,5S)-3-(2′-Amino-2-morpholin-4-yl-4′-trifluoromethyl-[4,5′]bipyrimidinyl-6-yl)-5-hydroxymethyl-4-methyl-oxazolidin-2-one], for which, in data set [1], the IC50 amounted to 50 nM. The “Score” value with A2058 cells is given as 0.

Turning to `C[C@H]1OC(=O)N(c2cc(-c3cnc(N)nc3C(F)(F)F)nc(N3CCOC[C@@H]3C)n2)[C@H]1CO` [Example 10, (4S,5R)-3-[2′-Amino-2-((S)-3-methyl-morpholin-4-yl)-4′-trifluoromethyl-[4,5′]bipyrimidinyl-6-yl]-4-hydroxymethyl-5-methyl-oxazolidin-2-one], in data set [1], the IC50 is 61 nM. For the same compound, the “Score” value in the data set on A2058 cells was determined as 0.

For `Nc1ncc(-c2cc(N3C(=O)O[C@@H]4[C@@H](O)CC[C@@H]43)nc(N3CCOCC3)n2)c(C(F)(F)F)n1` (racemic) [Example 22, (3aR*,6R*,6aR*)-3-(2′-Amino-2-morpholino-4′-(trifluoromethyl)-[4,5′-bipyrimidin]-6-yl)-6-hydroxyhexahydro-2H-cyclopenta[d]oxazol-2-one], the IC50 in data set [1] came to 95 nM. For the same compound, the “Score” value with A2058 cells is on record as 0.

Regarding `C[C@H](O)CC1OC(=O)N(c2cc(-c3cnc(N)nc3C(F)(F)F)nc(N3CCOCC3)n2)[C@H]1C` (single isomer, unassigned) [Example 25], the IC50 in data set [1] amounted to 45 nM. Besides, in the data set with A2058 cells, the “Score” value was determined as 0.

Take `[2H]C1([2H])OC([2H])([2H])C([2H])([2H])N(c2nc(-c3cnc(N)nc3C(F)(F)F)cc(N3C(=O)O[C@H](C)[C@@H]3CO)n2)C1([2H])[2H]` [Example 8]: the IC50 in data set [1] turned out to be 81 nM. In the data set on A2058 cells, the “Score” value amounted to 0.

In the case of `C[C@H]1OC(=O)N(c2cc(-c3cnc(N)nc3C(F)(F)F)nc(N3CCOCC3)n2)[C@H]1COC=O` [Example 12, Formic acid (4S,5R)-3-(2′-amino-2-morpholin-4-yl-4′-trifluoromethyl-[4,5′]bipyrimidinyl-6-yl)-5-methyl-2-oxo-oxazolidin-4-ylmethyl ester], the IC50 in data set [1] turned out to be 113 nM. In addition, in the data set with A2058 cells, the “Score” value was found to be 0.
